From US8710252B2, “Hepodxilin analog enantiomers” (priority 2006, dated 2014)
Entries after “also recorded” stand apart in the source; their conditions may differ.

How the values were obtained:
[1] = molecular target: T1, Ga14-DBD-PPAR gamma-LBD fusion protein (Homo sapiens, UniProt P37231); assay: PPAR gamma transactivation assay (Gal4-PPAR gamma LBD / UASx4-TK-luc reporter); assay type: cell-based
T1 construct: expressed in transfected cells; host or cells: mouse embryonic fibroblasts (MEFs) or ME3 cells
T1 sequence (P37231 238-503 limits assumed): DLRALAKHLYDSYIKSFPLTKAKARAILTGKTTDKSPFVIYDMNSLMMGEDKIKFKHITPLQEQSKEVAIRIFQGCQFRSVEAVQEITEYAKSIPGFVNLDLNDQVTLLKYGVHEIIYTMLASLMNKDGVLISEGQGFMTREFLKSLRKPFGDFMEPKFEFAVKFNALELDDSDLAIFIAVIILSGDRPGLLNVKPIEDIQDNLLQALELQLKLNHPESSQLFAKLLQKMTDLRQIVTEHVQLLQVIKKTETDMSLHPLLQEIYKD
Description: The UASx4-TK-luc reporter construct (where UAS refers to “upstream activator sequence”) contains four Ga14-responsive elements. The plasmid Ga14-PPAR gammaLBD encodes a Ga14-DBD-PPAR gamma-LBD fusion protein (i.e. the DNA-binding domain, DBD, of Ga14 fused to the ligand-binding domain, LBD, of PPAR gamma) capable of transactivating the UASx4-TK-luc reporter plasmid by binding to the UAS. The CMV-beta-galactosidase plasmid (where CMV is cytomegalovirus) was used for normalization of experimental values.
The cells were replated, typically in 24 well plates, so that at the time of transfection the cells were 50-70% confluent.
Briefly, per well in a 24 well plate, UASx4TKIuc (0.2 microg) Ga14-PPAR gammaLBD (or pM-hPPAR gamma-LBD; 0.1 microg) and CMV-beta-galactosidase (0.05 microg) in 30 μL DMEM (free of serum and antibiotics) was mixed with 30 microL DMEM (free of serum and antibiotics) containing 1 microL metafectenein. The mixture was incubated at room temperature for 20 min to allow formation of nucleic acid-lipid complexes and then approximately 60 micros was added to each well containing the 50-70% confluent cells. […] Cells were harvested after 12-24 hours and luciferase and beta-galactosidase activities were measured according to standard protocols.
Each experiment was carried out with triplicate samples with 0.1, 1 or 10 microM racemate or purified enantiomer.

[2] = system: Caspase-3 cleavage in K562 cells; assay: Caspase-3 cleavage in K562 cells, Western blot; assay type: cell-based, human; settings: 10 uM, 6 h; for Cleavage of caspase-3: FIG. 7
Experimental: Cell culture: Human leukemia K562 cells, obtained from ATCC (American Type Culture Collection), were maintained in RPMI 1640 medium containing 100 units/ml penicillin G, 100 μg/ml streptomycin, 10% (v/v) fetal calf serum in a humidified atmosphere with 5% CO2 at 37° C. The ability of the cells to exclude trypan Blue dye was used to assess cell viability.
Cell treatment: K562 cells were stored in 0.5% FBS for 15 min before the experiment. The cells, 6×10^5, were treated with DMSO as vehicle, or with PBT-3, PBT-4, or compounds A, B, C and D at 10 uM/dish (8 ml). Gleevec™ (STI) was used at 5 μM/dish. All experiments were without FBS and treatment lasted 6 h at 37° C. Treatment was terminated by washing the cells with ice-cold PBS buffer by centrifugation at 500×g for 5 min. Cells were lysed in buffer containing 20 mM Tris-HCl buffer, pH 7.4, 150 NaCl, 1 mM EDTA, 1 mM EGTA, 1% Triton X-100 2.5 mM sodium pyrophosphate, 1 mM beta-glycerophosphate, 1 mM sodium orthovanadate, 1 mM PMSF and 1 μM leupeptin/1 μM Aprotinin/1 μM pepstain A, on ice for 30 min. The lysates were clarified by centrifugation at 15,000×g for 15 min at 4° C. Lysates were subjected to protein assay (BCA, Pierce) and kept at −80° C.
Western blot: Thirty micrograms of protein from each sample were taken, and SDS-PAGE sample loading buffer was added. The mixture was boiled for 5 min. After centrifugation, the samples were loaded onto 15% SDS-PAGE gel and the gel was run (BioRad Protein II) for 2-3 h at 20 mA. The protein was transferred to a Trans-blot Nitrocellulose membrane (Millipore). Protein bands on the membranes were checked visually with Ponceau S-staining to ensure equivalent protein load/transfer comparing different samples. Membranes were blocked with 5% non-fat dry milk in PBS containing 0.5% Tween-20 for 1 h at room temperature, and then incubated with 1:1000 dilution of anti-caspase-3 antibody (BD Transduction Laboratories, Mississauga, Canada) overnight at 4° C. Secondary antibody of horseradish peroxidase anti-mouse antibody was used at 1:2000 dilution. Bound antibodies were detected by using enhanced chemilluminescence (ECL kit, Amersham Pharmacia Biotech) and the membranes were exposed to Hyper film for ECL detection. The same membrane was stripped by placing in buffer containing 62.5 mM Tris-HCl, pH 6.8/2% SDS/100 mM beta-mercaptoethanol at 50° C. for 30 min. The membrane was washed 3 times with PBS containing 0.5% Tween-20. The membrane was blocked by PBS buffer containing 0.5% Tween-20 and 5% skim milk. The anti-tubulin antibody (Santa Cruz, Calif.) was diluted 1:1000 and membrane analyzed by ECL as described above.

[3] = system: human leukemic K562 cells; assay: Inhibition of 3H-methyl thymidine incorporation (cell proliferation) in K562 cells; assay type: cell-based; settings: for IC50: 6 h treatment, compounds are methyl esters
Experimental: The human leukemic K562 cell line was established as previously reported (Qiao et al., 2003). Cells were maintained as suspension cultures in RPMI 1640 medium supplemented with 100 1.1/ml penicillin G, 100 μg/ml streptomycin, 10% (v/v) […] in a humidified atmosphere of 5% CO2 at 37° C. Cell viability was assessed by the exclusion of Trypan blue. Incorporation of ^3H-methyl thymidine into cell DNA was used as an assay for cell proliferation. Cells ([…]) were starved for 12 h, and were subsequently treated with the test compounds. Compounds A, B, C and D were made up at various concentrations in DMSO ([…] A, B, C and D. Concentrations were doubled for racemates PBT-3 and PBT-4) and 1 of these solutions was added/ml volume of cells. Cells were suspended in RPMI 1640 medium. At 6 h post-treatment at 37° C. the cells were fixed and denatured essentially as described in Qiao et al. (2003), harvested and passed through Whatman GF/C glass filters. The filters were washed and counted for radioactivity.

[4] = system: washed human platelets; assay: I-BOP evoked human platelet aggregation in vitro with washed platelets; assay type: cell-based; settings: for IC50: washed human platelets, 5 ng I-BOP, compounds are methyl esters, read-out: IC50, inhibition of I-BOP evoked human platelet aggregation
Experimental: Washed human platelets were prepared as previously described (Pace-Asciak et al., 2002). The aggregation of platelets was carried out in a conventional 4-well aggregometer with stirring of the suspension maintained at 37° C. The platelet suspension was caused to aggregate with a thromboxane stable analog, I-BOP. The isolated enantiomer compounds and their respective racemates, PBT-3 and PBT-4, were added at various concentrations to cuvettes containing 375×10^6 platelets/ml, 1 min prior to the addition of 5 ng I-BOP (Cayman Chemicals, Ann Arbor, Mich.). Aggregation was monitored for an additional 5 min.

Row | Structure (SMILES) | PPAR gamma transactivation, result in words [1] | PPAR Activation as % of positive control (Avandia) ([1]; Experiment 1, 0.1 microM) | PPAR Activation as % of positive control (Avandia) ([1]; Experiment 1, 1 microM) | PPAR Activation as % of positive control (Avandia) ([1]; Experiment 1, 10 microM) | PPAR Activation as % of positive control (Avandia) ([1]; Experiment 2, 0.1 microM) | PPAR Activation as % of positive control (Avandia) ([1]; Experiment 2, 1 microM) | PPAR Activation as % of positive control (Avandia) ([1]; Experiment 2, 10 microM) | PPAR Activation as % of positive control (Avandia) ([1]; Experiment 3, 0.1 microM) | PPAR Activation as % of positive control (Avandia) ([1]; Experiment 3, 1 microM) | PPAR Activation as % of positive control (Avandia) ([1]; Experiment 3, 10 microM) | Cleavage of caspase-3 compared with Compound B [2] | Cleavage of caspase-3 [2] | IC50 [3] | Potency relative to Compound B, inhibition of platelet aggregation ([4]; I-BOP evoked aggregation) | Potency relative to racemic PBT-3, inhibition of platelet aggregation ([4]; I-BOP evoked aggregation) | Potency relative to racemic PBT-3, inhibition of platelet aggregation ([4]; I-BOP evoked aggregation, listed as compound A) | IC50 [4] | Activity relative to Compound D, cell proliferation assay [3]
1 | CCCCC/C=C\C[C@H]1C[C@@H]1[C@H](O)/C=C\C/C=C\CCCC(=O)OC [Compound A, 10R-hydroxy-11S,12S-cyclopropyl-eicosa-5Z,8Z,14Z-trienoic acid methyl ester] | no apparent difference | 11 +/− 4 % of positive control (Avandia) | 14 +/− 4 % of positive control (Avandia) | 63 +/− 34 % of positive control (Avandia) | 4 +/− 1 % of positive control (Avandia) | 11 +/− 1 % of positive control (Avandia) | 34 +/− 1 % of positive control (Avandia) | 8 +/− 2 % of positive control (Avandia) | 12 +/− 1 % of positive control (Avandia) | 27 +/− 5 % of positive control (Avandia) | more active than Compound B | increased cleavage of caspase-3 | 3600 nM | nearly four times as active; also recorded: about four times more potent | twice as potent | 2 fold | 27 ± 7 nM | 
2 | CCCCC/C=C\CC1CC1C(O)/C=C\C/C=C\CCCC(=O)OC (stereo not drawn) [Compound B, 10S-hydroxy-11R,12R-cyclopropyl-eicosa-5Z,8Z,14Z-trienoic acid methyl ester] | no apparent difference | 11 +/− 3 % of positive control (Avandia) | 21 +/− 3 % of positive control (Avandia) | 44 +/− 11 % of positive control (Avandia) | 4 +/− 1 % of positive control (Avandia) | 10 +/− 1 % of positive control (Avandia) | 35 +/− 11 % of positive control (Avandia) | 10 +/− 3 % of positive control (Avandia) | 16 +/− 6 % of positive control (Avandia) | 30 +/− 10 % of positive control (Avandia) |  | increased cleavage of caspase-3 | 7600 nM |  |  |  | 101 ± 27 nM | 
3 | CCCCC/C=C\CC1CC1C(O)/C=C\C/C=C\CCCC(=O)OC (stereo not drawn) [Compound C, 10R-hydroxy-11R,12R-cyclopropyl-eicosa-5Z,8Z,14Z-trienoic acid methyl ester] |  | 14 +/− 4 % of positive control (Avandia) | 16 +/− 3 % of positive control (Avandia) | 38 +/− 8 % of positive control (Avandia) | 4 +/− 1 % of positive control (Avandia) | 6 +/− 1 % of positive control (Avandia) | 14 +/− 1 % of positive control (Avandia) | 9 +/− 3 % of positive control (Avandia) | 7 +/− 1 % of positive control (Avandia) | 17 +/− 3 % of positive control (Avandia) |  | increased cleavage of caspase-3 | 4000 nM |  |  |  | 60 ± 12 nM | 1.3 fold
4 | CCCCC/C=C\CC1CC1C(O)/C=C\C/C=C\CCCC(=O)OC (stereo not drawn) [Compound D, 10S-hydroxy-11S,12S-cyclopropyl-eicosa-5Z,8Z,14Z-trienoic acid methyl ester] | more effectively than Compound C; also recorded: improved PPAR gamma transactivating activity over Compound C; also recorded: higher fold PPAR gamma transactivation than compound C | 14 +/− 3 % of positive control (Avandia) | 17 +/− 3 % of positive control (Avandia) | 69 +/− 15 % of positive control (Avandia) | 4 +/− 1 % of positive control (Avandia) | 5 +/− 1 % of positive control (Avandia) | 18 +/− 1 % of positive control (Avandia) | 7 +/− 2 % of positive control (Avandia) | 8 +/− 1 % of positive control (Avandia) | 33 +/− 7 % of positive control (Avandia) |  | increased cleavage of caspase-3 | 5200 nM |  |  |  | 82 ± 18 nM | 
